Experimental data as given in US20170099837A1, “EXTRACTS OF AGRICULTURAL HUSKS USED TO MODIFY THE METABOLISM OF PLANTS” (priority 2014, published 2017).

Legend:
Daphnia magna = experiment: 48-h static toxicity test on Daphnia magna; settings: in vivo
Experimental: In contrast, pure nitrated phenolic compounds such as p-nitrofenol show toxicities up to 125 times higher, measured as mean lethal concentration (CL50) over Daphnia magna or as concentration without observed effect (CSEO by its Spanish acronym).
The study was carried out to determine composition toxicity on Daphnia magna in a 48-h static test. Test concentrations were determined through a range test. Concentrations used for the definitive test were 62.5, 125, 250, 500 and 1000 mg/L, administered to the system, Daphnia magna, in fresh water. Three copies of 10 organisms were used for each concentration test. Control containers were used, placing 10 daphnides in fresh water without the composition. Dissolved oxygen, temperature, conductivity and pH were assessed at the beginning of the test and after each dose. Observations for immobility were made daily in a test chamber. The test ended after 48±1 hour of exposure. The concentration without observed effect (CSEO) of the composition was 250 mg/L and CE50 (Mean Effective Concentration) was determined higher than 1000 mg/L.

pepper bell seedlings = experiment: Protection of pepper bell seedlings exposed to saline stress
Experimental: Protection offered by the composition in plants exposed to saline stress was observed through an assay with pepper bell seedlings, cultivar “npiter”. These seedlings were placed in germination plates with peat-moss as substrate and kept during a 40-day period and then transferred to 5-L pots. Adaptation period before treatment commencement consisted of daily irrigation during 10 days reaching saturation by a nutrient formulation based on 100-50-100 N-P-K at 1 mg/L concentrations. Used treatments in the assay were prepared in 100 L containers where NaCl was added until reaching a concentration of 25 mM/L, plus nutrients based on Hoagland formula (50% of its concentration). Irrigation frequency with this nutrient solution was every day, applying a 350 cm^3 volume per plant during the whole assay. Composition application was carried out once per week at a dose of […]. Based on a daily irrigation volume of 350 mL/plant, weekly application of the composition was 0.6 cm^3 per 7 days in 350 cm^3 of irrigation water per plant.

[1] = 25 mM NaCl irrigation, composition 0.6 mL per plant per day applied weekly

Row | SMILES | toxicity relative to the composition, measured as mean lethal concentration (CL50) over Daphnia magna or as CSEO (Daphnia magna) | Foliar area (cm^2/plant) (pepper bell seedlings; [1]) | Leaves per plant (pepper bell seedlings; [1]) | reduction of number of leaves per plant (pepper bell seedlings; treatment with 25 mM NaCl)
1 | O=[N+]([O-])c1ccc(O)cc1 [p-nitrofenol] | up to 125 times higher |  |  | 
2 | [Cl-].[Na+] [25 mM NaCl, NaCl] |  | 1050 | 50 | about 27%
